Source: patent US20180008572A1, “ANTIMETASTATIC COMPOSITION COMPRISING AT LEAST ONE FLAVANOL-TYPE COMPOUND” (priority 2014, published 2018)

Tests used:
SiHa-F3 cells [1] = assay: Cell survival of SiHa-F3 tumor cells (crystal violet or MTT); format: cell-based, human; settings: 1 μM
Experimental: Tests of cell migration and of survival of the treated cells were carried out with a model of super-invasive tumor cells obtained from a human cervical adenocarcinoma cell line, SiHa. The selection of the super-invasive SiHa-F3 cells (F3 on the graphs) was carried out after three consecutive invasions in vitro in permeable supports of Transwell® type coated with Matrigel® (Porporato P E et al., Cell Rep 2014, 8:754-766).
The cell survival, in order to exclude any toxic effect of the products tested, was estimated either on the basis of the quantification of the cells stained with crystal violet, or by measuring the mitochondrial succinate dehydrogenase (SDH) activity on the reduction of the MTT tetrazolium salt (suspension of formazan obtained in DMSO and measurement of absorbance at 570 nm).
Measurement of cell viability: 20 000 SiHa-F3 cells were seeded and treated with the indicated compounds overnight (16 h). The cells were then fixed for 3 min with methanol, stained with 0.23% crystal violet, and resuspended in DMSO in order to measure the absorbance at 595 nm (Victor X4 spectrophotometer, Perkin Elmer); or alternatively incubated for 3 h at 37° C. in a saturating solution of MTT in HBSS containing 10 mM of HEPES, and resuspended in DMSO in order to measure the absorbance at 630 nm (Victor X4 spectrophotometer, Perkin Elmer). […]

SiHa-F3 cells [2] = assay: Tumor cell migration in a Boyden chamber; format: cell-based, human; settings: for migration of the cancer cells (% of the control): Boyden chamber, 16 h, 100 nM to 1 mM
Experimental: Tests of cell migration and of survival of the treated cells were carried out with a model of super-invasive tumor cells obtained from a human cervical adenocarcinoma cell line, SiHa. The selection of the super-invasive SiHa-F3 cells (F3 on the graphs) was carried out after three consecutive invasions in vitro in permeable supports of Transwell® type coated with Matrigel® (Porporato P E et al., Cell Rep 2014, 8:754-766). […] The actual migration of the tumor cells was measured in a Boyden chamber with 50 000 cells per well and 0.15% of fetal bovine serum (FBS) used as chemoattractant. The pore diameters of the porous membrane separating the two compartments of the Boyden chamber were fixed at 8 μm. After 16 hours of migration, the cells were first fixed with methanol for 3 min and then stained with crystal violet. The culture medium used was DMEM 4.5 g/l of glucose, GlutaMAX®, 1% of a solution of penicillin/streptomycin and 10% of fetal bovine serum. Cell migration measurements: A 48-well reusable Boyden chamber (Neuroprobe) was used according to the manufacturer's instructions. Briefly, medium containing 0.15% of fetal bovine serum served as chemoattractant in the lower compartment, a polycarbonate membrane pierced with pores 8 μm in diameter separated the two compartments, and 50 000 SiHa-F3 cells in suspension in the presence of the indicated compounds were introduced into the upper compartment. The migration of the cells was quantified after an overnight period (16 h). The cells, having migrated, were fixed for 3 min in methanol, stained with 0.23% crystal violet for 30 min, and counted on photographs taken at a magnification of ×2.5 using an inverted-phase microscope (Axiovert and Mrc camera, Zeiss). […] Results were expressed as % of the control.

SiHa-F3 cells [3] = assay: Level of reactive oxygen species (ROSs), DCFDA technique; format: cell-based, human; settings: 1 μM, 60 minutes of pretreatment
Experimental: Moreover, an evaluation of the impact of the products tested on the level of reactive oxygen species (ROSs) observed was carried out according to the DCFDA technique after 60 minutes of pretreatment of the SiHa-F3 metastatic progenitor cells with the products tested. Measurement of total cell ROSs: 20 000 SiHa-F3 cells were seeded before being treated for 1 h with the compounds indicated. The cells were then incubated for 30 min at 37° C. in a 1 μM solution of H2-DCFDA (Invitrogen) in HBSS containing 10 mM of HEPES, before measurement of the absorbance at 535 nm (Victor X4 spectrophotometer, Perkin Elmer).

melanoma cells = settings: mice having received cancer cells by intravenous injection; cited from earlier work
[4] = compared with epigallocatechin-3-gallate (EGCG); cited from earlier work
[5] = tested on: B16F10 murine melanoma cells; assay: Model of experimental lung metastases: pretreated B16F10 cells injected into the caudal vein; format: in vivo, C57BL/6 mice; settings: B16F10 cells pretreated with rotenone 10 nM + 10 μM compound, 14 days after injection
Excerpt: The B16F10 tumor cells come from the ATCC collection. The male 6- or 7-week-old C57BL/6 mice were acquired from the Janvier laboratories, and the protocols were applied with the agreement of the UCL ethics committee and while adhering to Belgian laws relating to animal care. Model of experimental metastases: the B16F10 cells were pretreated with DMSO (0.5%, rotenone carrier, negative control) or rotenone (respiratory chain complex I inhibitor and mitochondrial superoxide inducer as described in Porporato P E et al., Cell Rep 2014, 8:754-766, positive control), alone or in combination with the indicated compounds for 6 h. The cells were then detached, counted and resuspended in a proportion of 10×10^6 cells/ml in HBSS without calcium or magnesium. 10^6 cells (i.e. 100 μl of the suspension) were then injected into the caudal vein of C57BL/6 mice. 14 days after injection of the cells, the mice were sacrificed, the lungs were isolated and the metastases (spots positive for melanin) were counted under a dissection microscope.

Oc1cc(O)c2c(c1)O[C@H](c1ccc(O)c(O)c1)[C@@H](O)C2 [(+)-catechin]
survival of the tumor cells (SiHa-F3 cells [1]): does not affect the survival of the tumor cells
decrease in the number of tumor cells migrating from one compartment to the other of the Boyden cell (SiHa-F3 cells [2]; 1 μM, 16 hours of migration): does not however make it possible to significantly decrease
migration of the cancer cells (% of the control) (SiHa-F3 cells [2]): not the (+)-catechin, inhibit the migration of the cancer cells
reduction in the level of reactive oxygen species (ROSs) produced by the cells (SiHa-F3 cells [3]): no impact
melanoma cell invasion (melanoma cells): inhibited
anti-proliferative effect [4]: negligible

O=C(O[C@@H]1Cc2c(O)cc(O)cc2O[C@@H]1c1cc(O)c(O)c(O)c1)c1cc(O)c(O)c(O)c1 [epigallocatechin gallate]
migration of the cancer cells (% of the control) (SiHa-F3 cells [2]): inhibit the migration of the cancer cells
formation of lung metastases [5]: not Epigallocatechin Gallate Reduces the Formation of Lung Metastases
